From patent US20160046618A1, “Cyclopropyl Fused Thiazin-2-Amine Compounds as Beta-Secretase Inhibitors and Methods of Use” (AMGEN INC., priority 2014, published 2016)

What was measured:
[1] = biological target: human recombinant BACE1 (Homo sapiens (Human), UniProt P56817); experiment: In vitro enzymatic BACE1 FRET assay; format: biochemical; details: read-out: IC50 IP (μM) BACE1 enzyme
Method in brief: (§1)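 Reactions were initiated by adding 50 nM of a peptide carrying fluorophore and quencher on opposite sides of the cleavage site and ran for one hour. Tris buffer then brought the pH to neutrality, ending the reaction, and fluorescence was measured (488 nm excitation, 590 nm emission).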

[2] = biological target: Recombinant Cat D (Homo sapiens (Human), UniProt P07339); experiment: In vitro enzymatic Cathepsin D (Cat D) FRET assay; format: biochemical; details: read-out: IC50 IP (μM) CatD
Chain of Recombinant Cat D (P07339 65-412): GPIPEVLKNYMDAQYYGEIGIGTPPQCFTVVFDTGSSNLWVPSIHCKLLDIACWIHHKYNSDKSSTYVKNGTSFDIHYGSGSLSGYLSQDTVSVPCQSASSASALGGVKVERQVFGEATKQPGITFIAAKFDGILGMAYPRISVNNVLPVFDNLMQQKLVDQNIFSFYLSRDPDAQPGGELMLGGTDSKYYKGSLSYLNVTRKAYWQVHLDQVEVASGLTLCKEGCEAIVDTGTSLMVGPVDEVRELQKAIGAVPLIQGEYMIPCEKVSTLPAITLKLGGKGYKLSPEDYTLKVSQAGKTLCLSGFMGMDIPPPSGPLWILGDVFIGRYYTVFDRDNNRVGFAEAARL
Method in brief: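 Recombinant Cat D expressed in CHO cells, assayed in 0.05 M citrate pH 3.5 with 5 mM CHAPS and 10% DMSO final. Reaction started with 20 nM FRET peptide substrate, incubated one hour, then stopped by Tris buffer to neutral pH; fluorescence read at ex 500/em 580 nm.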

[3] = biological target: human recombinant BACE2 (Homo sapiens (Human), UniProt Q9Y5Z0); experiment: In vitro enzymatic BACE2 FRET assay; format: biochemical; details: read-out: IC50 IP (μM) BACE2 enzyme
Chain of human recombinant BACE2 (Q9Y5Z0 63-518): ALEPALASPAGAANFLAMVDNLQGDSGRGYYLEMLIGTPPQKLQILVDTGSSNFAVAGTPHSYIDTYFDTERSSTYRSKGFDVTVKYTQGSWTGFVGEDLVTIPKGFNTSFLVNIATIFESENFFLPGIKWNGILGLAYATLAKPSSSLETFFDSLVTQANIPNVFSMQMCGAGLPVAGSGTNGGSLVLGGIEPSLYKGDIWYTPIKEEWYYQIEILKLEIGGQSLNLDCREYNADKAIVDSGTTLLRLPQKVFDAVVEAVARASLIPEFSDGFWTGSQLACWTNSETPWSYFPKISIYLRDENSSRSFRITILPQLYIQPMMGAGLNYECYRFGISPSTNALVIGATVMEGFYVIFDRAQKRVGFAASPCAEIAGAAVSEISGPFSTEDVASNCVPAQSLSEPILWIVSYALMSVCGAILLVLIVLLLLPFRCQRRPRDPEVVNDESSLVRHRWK
Method in brief: as §1

[4] = test system: Aβ40 in conditioned medium of cells stably expressing Amyloid Precursor Protein (APP); experiment: In vitro BACE-1 cell-based assay (Aβ40 sandwich ELISA); details: read-out: IC50 IP (μM) BACE1 cell
Method in brief: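 Aβ40 in supernatants measured by time-resolved fluorescence sandwich ELISA, with pAb40 as capture and biotin-6E10 as detector antibody, each incubated at 4 °C.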

Chain of human recombinant BACE1 (P56817 46-501): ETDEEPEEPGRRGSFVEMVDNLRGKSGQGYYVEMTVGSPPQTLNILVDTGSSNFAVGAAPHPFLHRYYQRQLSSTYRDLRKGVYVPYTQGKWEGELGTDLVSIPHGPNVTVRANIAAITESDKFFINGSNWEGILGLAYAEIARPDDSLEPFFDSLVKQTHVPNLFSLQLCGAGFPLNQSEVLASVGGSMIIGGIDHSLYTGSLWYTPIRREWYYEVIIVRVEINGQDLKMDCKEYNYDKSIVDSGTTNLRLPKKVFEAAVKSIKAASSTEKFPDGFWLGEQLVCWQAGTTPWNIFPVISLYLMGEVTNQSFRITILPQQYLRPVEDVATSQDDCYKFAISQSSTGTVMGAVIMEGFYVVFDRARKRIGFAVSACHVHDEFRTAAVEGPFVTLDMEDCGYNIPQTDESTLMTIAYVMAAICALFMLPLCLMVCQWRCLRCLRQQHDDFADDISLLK

Compound | IC50 [1] [µM] | IC50 [2] [µM] | IC50 [3] [µM] | IC50 [4] [µM]
C[C@]1(c2cc(Nc3nccc4cc(C#N)cnc34)cnc2F)N=C(N)S[C@@]2(C(F)F)C[C@@H]12 [Example 657, 8-((5-((1S,5S,6S)-3-amino-1-(difluoromethyl)-5-methyl-2-thia-4-azabicyclo[4.1.0]hept-3-en-5-yl)-6-fluoro-3-pyridinyl)amino)-1,7-naphthyridine-3-carbonitrile] | 0.00369 | 306 | 0.00303 | 0.00533
C[C@]1(c2cc(Nc3ncnc4cc(C#N)cnc34)cnc2F)N=C(N)S[C@@]2(C(F)F)C[C@@H]12 [Example 658, 4-((5-((1S,5S,6S)-3-amino-1-(difluoromethyl)-5-methyl-2-thia-4-azabicyclo[4.1.0]hept-3-en-5-yl)-6-fluoro-3-pyridinyl)amino)pyrido[3,2-d]pyrimidine-7-carbonitrile] | 0.0107 | 705 | 0.0293 | 0.0136
C#CCOc1cnc2c(Nc3cnc(F)c([C@@]4(C)N=C(N)S[C@@]5([C@H](O)C(F)(F)F)C[C@H]54)c3)nccc2n1 [Example 659, (1R)-1-((1S,5S,6S)-3-amino-5-(2-fluoro-5-((2-(2-propyn-1-yloxy)pyrido[3,4-b]pyrazin-5-yl)amino)-3-pyridinyl)-5-methyl-2-thia-4-azabicyclo[4.1.0]hept-3-en-1-yl)-2,2,2-trifluoroethanol] | 0.000774 | 462 | 0.00425 | 0.0013
C#CCOc1cnc2c(Nc3cnc(F)c([C@@]4(C)N=C(N)S[C@]5(CO)[C@H]4C5(F)F)c3)nccc2n1 [Example 661, ((1S,5S,6R)-3-amino-7,7-difluoro-5-(2-fluoro-5-((2-(2-propyn-1-yloxy)pyrido[3,4-b]pyrazin-5-yl)amino)-3-pyridinyl)-5-methyl-2-thia-4-azabicyclo[4.1.0]hept-3-en-1-yl)methanol] | 0.000765 | 795 | 0.00392 | 0.00244
C[C@]1(c2cc(Nc3nccc4nc(OCc5ncco5)cnc34)cnc2F)N=C(N)S[C@]2(CO)[C@H]1C2(F)F [Example 663, ((1S,5S,6R)-3-amino-7,7-difluoro-5-(2-fluoro-5-((2-(1,3-oxazol-2-ylmethoxy)pyrido[3,4-b]pyrazin-5-yl)amino)-3-pyridinyl)-5-methyl-2-thia-4-azabicyclo[4.1.0]hept-3-en-1-yl)methanol] | 0.00048 | 601 | 0.0174 | 0.00338
C[C@]1(c2cc(Nc3ncnc4cc(OCc5ncco5)cnc34)cnc2F)N=C(N)S[C@]2(CO)[C@H]1C2(F)F [Example 664, ((1S,5S,6R)-3-amino-7,7-difluoro-5-(2-fluoro-5-((7-(1,3-oxazol-2-ylmethoxy)pyrido[3,2-d]pyrimidin-4-yl)amino)-3-pyridinyl)-5-methyl-2-thia-4-azabicyclo[4.1.0]hept-3-en-1-yl)methanol] | 0.000274 | > 400 | 0.046 | 0.0143
C#CCOc1cnc2c(Nc3cnc(F)c([C@@]4(C)N=C(N)S[C@@]5([C@H](O)C(F)(F)F)C[C@H]54)c3)ncnc2c1 [Example 665, (1R)-1-((1S,5S,6S)-3-amino-5-(2-fluoro-5-((7-(2-propyn-1-yloxy)pyrido[3,2-d]pyrimidin-4-yl)amino)-3-pyridinyl)-5-methyl-2-thia-4-azabicyclo[4.1.0]hept-3-en-1-yl)-2,2,2-trifluoroethanol] | 0.00165 | 1110 | 0.0383 | 0.00737
C#CCOc1cnc2c(Nc3cnc(F)c([C@@]4(C)N=C(N)S[C@@]5([C@@H](O)C(F)(F)F)C[C@H]54)c3)ncnc2c1 [Example 666, (1S)-1-((1S,5S,6S)-3-amino-5-(2-fluoro-5-((7-(2-propyn-1-yloxy)pyrido[3,2-d]pyrimidin-4-yl)ammo)-3-pyridinyl)-5-methyl-2-thia-4-azabicyclo[4.1.0]hept-3-en-1-yl)-2,2,2-trifluoroethanol] | 0.00201 | 1690 | 0.177 | 0.00772
C[C@]1(c2cc(Nc3ncnc4cc(OCc5ncco5)cnc34)cnc2F)N=C(N)S[C@@]2([C@H](O)C(F)(F)F)C[C@H]21 [Example 667, (1R)-1-((1S,5S,6S)-3-amino-5-(2-fluoro-5-((7-(1,3-oxazol-2-ylmethoxy)pyrido[3,2-d]pyrimidin-4-yl)amino)-3-pyridinyl)-5-methyl-2-thia-4-azabicyclo[4.1.0]hept-3-en-1-yl)-2,2,2-trifluoroethanol] | 0.00262 | 1160 | 0.0599 | 0.00362

The next lines start with the values.

IC50 [1] [µM] | IC50 [2] [µM] | IC50 [3] [µM] | IC50 [4] [µM] | Compound
0.0033 | 1970 | 0.233 | 0.00697 | C[C@]1(c2cc(Nc3ncnc4cc(OCc5ncco5)cnc34)cnc2F)N=C(N)S[C@@]2([C@@H](O)C(F)(F)F)C[C@H]21 [Example 668, (1S)-1-((1S,5S,6S)-3-amino-5-(2-fluoro-5-((7-(1,3-oxazol-2-ylmethoxy)pyrido[3,2-d]pyrimidin-4-yl)amino)-3-pyridinyl)-5-methyl-2-thia-4-azabicyclo[4.1.0]hept-3-en-1-yl)-2,2,2-trifluoroethanol]
0.00119 | 1140 | 0.036 | 0.00593 | C[C@]1(c2cc(Nc3nccc4cc(OCc5ncco5)cnc34)cnc2F)N=C(N)S[C@]2(CO)[C@H]1C2(F)F [Example 669, ((1S,5S,6R)-3-amino-7,7-difluoro-5-(2-fluoro-5-((3-(1,3-oxazol-2-ylmethoxy)-1,7-naphthyridin-8-yl)amino)-3-pyridinyl)-5-methyl-2-thia-4-azabicyclo[4.1.0]hept-3-en-1-yl)methanol]
0.0024 | 730 | 0.17 | 0.000969 | C#CCOc1cnc2c(Nc3cnc(F)c([C@@]4(C)N=C(N)S[C@@]5(CO)C[C@H]54)c3)ncnc2c1 [Example 670, ((1S,5S,6S)-3-amino-5-(2-fluoro-5-((7-(2-propyn-1-yloxy)pyrido[3,2-d]pyrimidin-4-yl)amino)-3-pyridinyl)-5-methyl-2-thia-4-azabicyclo[4.1.0]hept-3-en-1-yl)methanol]
0.000943 | 1040 | 0.0236 | 0.00177 | C#CCOc1cnc2c(Nc3ccc(F)c([C@@]4(C)N=C(N)S[C@@]5([C@H](O)C(F)(F)F)C[C@H]54)c3)nccc2n1 [Example 671, (1R)-1-((1S,5S,6S)-3-amino-5-(2-fluoro-5-((2-(2-propyn-1-yloxy)pyrido[3,4-b]pyrazin-5-yl)amino)phenyl)-5-methyl-2-thia-4-azabicyclo[4.1.0]hept-3-en-1-yl)-2,2,2,-trifluoroethanol]
0.00142 | 638 | 0.0685 | 0.007 | C#CCOc1cnc2c(Nc3ccc(F)c([C@@]4(C)N=C(N)S[C@@]5([C@@H](O)C(F)(F)F)C[C@H]54)c3)nccc2n1 [Example 672, (1S)-1-((1S,5S,6S)-3-amino-5-(2-fluoro-5-((2-(2-propyn-1-yloxy)pyrido[3,4-b]pyrazin-5-yl)amino)phenyl)-5-methyl-2-thia-4-azabicyclo[4.1.0]hept-3-en-1-yl)-2,2,2-trifluoroethanol]
